How the values were obtained:
Type in all cases: cell-based, human
[1] = system: hair follicle melanocytes (HFM); assay: Melanin content in hair follicle melanocytes (HFM); settings: 4 days incubation, baseline = 100%
Description: Particularly, the activity of an agent in blocking an opioid receptor can be further determined by measuring the efficacy of the agent to cause a substantial increase of the total intracellular melanin production in human primary follicular melanocytes.
The effect of opioid antagonists on melanin production in hair follicular melanocytes can be measured in a cell-based in vitro assay.
(§1) Melanocytes are isolated and cultured from hair follicles derived from a normal adult scalp biopsy. Follicular melanocytes are passaged in T25 plastic culture flasks to maximum 4th to maximize in vivo-like behavior. Cells are seeded into flasks and after 2 days are incubated with test substances added to the cell growth medium. The experimental set-up includes flasks in which the cells are either not treated (control) or incubated for 4 days with the appropriate amount of opioid antagonists, to assess the effect on melanin production.
(§2) After 4 days incubation, control and treated cells are collected and melanin is extracted from lysed cells. Melanin is quantified by measuring the spectrophotometric OD at 475 nm and calculating against a standardized curve. The resulting value is standardized against the number of cells counted per treatment and is given as micrograms of melanin per million cells.
as §1, with “cultured either” for “cultured”, “follicles or epidermal skin” for “follicles”, “Follicular and epidermal” for “Follicular”
as §2, with “million cells. As control known melanin production inducing references IBMX and full medium are used.” for “million cells.”

[2] = system: hair follicle melanocytes; assay: Dendricity of hair follicle melanocytes (phase contrast microscopy); settings: hair follicle cells, baseline = 100%
Experimental: as §1, with “cultured either” for “cultured”, “follicles or epidermal skin” for “follicles”, “Follicular and epidermal” for “Follicular”
(§3) Furthermore, the hair follicle cells were analysed for their proliferation and dentricity. Proliferation has been assessed by direct cell counting using hemocytometry. Cell dendricity has been assessed by phase contrast microscopy with representative photo documentation. It can be seen that the opioate receptor antagonists also have an effect on the proliferation and dentricity further supporting the use of the opiate receptor antagonists for the prevention of the graying of hair and/or for restoration and/or maintenance of the natural hair color

[3] = system: hair follicle melanocytes; assay: Proliferation of hair follicle melanocytes (direct cell counting, hemocytometry); settings: hair follicle cells, baseline = 100%
Experimental: as §1, with “cultured either” for “cultured”, “follicles or epidermal skin” for “follicles”, “Follicular and epidermal” for “Follicular”
as §3

[4] = system: epidermal melanocytes (EM); assay: Melanin content in epidermal melanocytes (EM); settings: 4 days incubation, baseline = 100%
Experimental: as §1, with “cultured either” for “cultured”, “follicles or epidermal skin” for “follicles”, “Follicular and epidermal” for “Follicular”
as §2, with “million cells. As control known melanin production inducing references IBMX and full medium are used.” for “million cells.”

Molecule | Melanin content in HFM ([1]; concentration not given) | Dentricity ([2]; concentration not given) | Proliferation of melanocytes ([3]; concentration not given) | Dentricity ([2]; 1 μM) | Dentricity ([2]; 100 μM) | Proliferation of melanocytes ([3]; 1 μM) | Melanin content in EM ([4]; 1 μM) | Melanin content in EM ([4]; 100 μM) | Melanin content in HFM ([1]; 1 μM) | Melanin content in HFM ([1]; 100 μM)
beta endorphin (YGGFMTSEKSQTPLVTLFKNAIIKNAYKKGE; Beta-endorphin; UniProt P01189 237-267, looked up) [μ-opiate agonist] | 92% | – | – | – | – | – | – | – | – | –
CC(C)Cn1c(=O)n(C)c(=O)c2[nH]cnc21 [IBMX] | 140% | 148% | 140% | – | – | – | – | – | – | –
C=CCN1CC[C@]23c4c5ccc(O)c4O[C@H]2C(=O)CC[C@@]3(O)[C@H]1C5 [Naloxone] | – | – | – | 110% | 104% | 123% | 61% | 54% | – | –
C=CCN1CC[C@]23c4c5ccc(O)c4O[C@H]2/C(=N/N=C2\CC[C@@]4(O)[C@H]6Cc7ccc(O)c8c7[C@@]4(CCN6CC=C)[C@H]2O8)CC[C@@]3(O)[C@H]1C5 [Naloxonazine] | – | – | – | 105% | – | 109% | 40% | 25% | 120% | 242%

Source: patent US20090325857A1, “USE OF OPIOID RECEPTOR ANTAGONISTS” (priority 2006, published 2009)
